Reference: patent US20150118215A1, “Methods of Inhibiting Cell Proliferation” (The General Hospital Corporation, priority 2012, published 2015)
“Also recorded” adds a separate entry of the source. Values belong to the molecule of their own block, whether it stands above or below them.

Experiments:
MTC cells [1] = test: Cell population endocytic uptake assay (albumin-Alexa555, RITC-dextran) in MTC cells; type: cell-based; conditions: for effect on endocytic uptake of fluid phase marker RITC-dextran: control and peptide-stimulated conditions, inhibitors; for effect on uptake of albumin-Alexa555 via receptor-mediated (CDE) pathway: control non-stimulated conditions; for effect on uptake of albumin-Alexa555 via receptor-mediated (CDE) pathway / effect on uptake of albumin-Alexa555 via FITC-a2N1-17-TAT peptide-induced macropinocytosis (CIE) pathway: 1 μM bafilomycin A1, 100 μM DMA or 100 μM EIPA; for effect on uptake of albumin-Alexa555 via FITC-a2N1-17-TAT peptide-induced macropinocytosis (CIE) pathway: peptide-stimulated
Procedure: (§1) Cell Population Albumin Endocytic Uptake Assay—
(§2) Quantitative endocytic uptake of albumin-Alexa555 and RITC-dextran was performed using a cell population assay as previously described (Hurtado-Lorenzo et al. (Nat Cell Biol 8, 124-136, 2006)). HeLa cells were seeded on 48-well plates (5,000 cells/well) and grown for 5 days. MTC cells were seeded on 48-well plates (5,000 cells/well) and grown for 7 days until polarized, followed by starvation for 2 days in serum-free DMEM medium. Cells were incubated in 200 μl of Ringer buffer (pH 7.4) containing either 200 μg/ml albumin-Alexa555 or 500 μg/ml RITC-dextran in the presence of 5 μM FITC-TAT or 5 μM FITC-a2N1-17-TAT peptides. As indicated, cells were also treated with 1 μM bafilomycin A1, 1 mM amiloride, 100 μM DMA or 100 μM EIPA. At the indicated times, cells were washed with Ringer's buffer (pH 6.0) for three times and were permeabilized in 20 mM MOPS (pH 7.0), 0.1% Triton X-100. The fluorescence was measured using a DTX 880 Microplate Reader (Beckman) with 535-nm excitation and 595-nm emission filters (FIGS. 7, 8, and 12).

MTC cells [2] = test: Cell population albumin degradation assay (DQ-Red BSA); type: cell-based; conditions: 5 μM peptides, 1 μM bafilomycin A1, 20 mM NH4Cl, 1 mM amiloride, 100 μM DMA
Procedure: Cell Population Albumin Degradation Assay—
Quantitative protein degradation assay was performed using DQ-Red BSA. MTC cells were seeded on 48-well plate (5,000 cells/well) and grown for 7 days until being polarized, followed by starvation for two days in serum-free DMEM medium. Cells were washed with Ringer buffer (pH 6.0) for three times and with Ringer buffer (pH 7.4) once. Cells were then incubated in 200 μl of Ringer buffer (pH 7.4) containing as indicated: 5 μM FITC-TAT, 5 μM FITC-a2N1-17-TAT peptide, 1 μM baflomycin A1, 20 mM NH4Cl, 1 mM amiloride or 100 μM DMA. DQ-Red BSA was added to a final concentration of 10 μg/ml. The fluorescence was estimated using a DTX 880 Microplate Reader (Beckman) with 590-nm excitation and 625-nm emission filters every 3 minutes. The 48-well plate was kept at 37° C. in the microplate reader (FIG. 11).

MTC cells [3] = test: Pulse-chase live time-lapse confocal imaging and tracking of endocytic vesicles; type: cell-based
Procedure: Pulse-Chase Experiments and Live Time-Lapse Confocal Fluorescence Imaging—
Live cell imaging of MTC cells was performed using time-lapse confocal fluorescent imaging as previously described (Hurtado-Lorenzo et al. (Nat Cell Biol 8, 124-136, 2006)). MTC cells were seeded on FluoroDish (World Precision Instruments, Inc) (25,000-100,000 cells/dish) and grown to about 50% confluency. To label the organelles of the endocytic pathway in vivo, MTC cells were transfected using lipofectamine 2000 (Invitrogen) with 5 μg of the plasmids: i) EEA1-GFP or Rab5-EGFP (early endosomal markers); ii) Rab7-EGFP (late endosomal marker), and iii) LAMP1-mGFP (lysosomal marker). After two days, the cells were washed for three times with Ringer's buffer (pH 6.0) followed by one wash with Ringer's buffer (pH 7.4) at 37° C., and i) pulsed for 15 min with 5 μM FITC-TAT and 100 μg/ml albumin-Alexa594: ii) pulsed for 15 min with 5 μM FITC-a2N1-17-TAT and 100 μg/ml albumin-Alexa594; or iii) pre-incubated in the presence or absence of 1 μM bafilomycin A1 and pulsed with 100 μg/ml albumin-Alexa594. The MTC cells transfected with EEA1-GFP, Rab5-EGFP, Rab7-EGFP and LAMP1-GFP plasmids were pulsed for 6-15 min with 5 μM of CTMR-a2N1-17-TAT peptide. After the pulse, cells were washed either by perfusion or rinsing with Ringer's buffer (pH 7.4) and incubated in an environmental chamber (37° C., 5% CO2) coupled to a Nikon inverted microscope. Videos were acquired with a spinning-disc confocal imaging system Ultra View RS (Perkin Elmer). FIGS. 9 and 10 show frames from these movies.
Image Analysis and Tracking of Endocytic Vesicles—
Dynamics of the movement of early endosomes, late endosomes and lysosomes labeled with either: i) albumin-Alexa594; ii) FITC-a2N1-17-TAT and albumin-Alexa594; or iii) CTMR-a2N1-17-TAT and transfected EEA1-GFP markers were tracked with Particle Tracker PlugIn (Merkulova et al. (Biochim BiophysActa 1797, 1398-1409, 2010)) for ImageJ (NIH). The trajectories that appeared for over 30 frames were further analyzed. The two-dimensional displacement between consecutive frames was calculated from changes in X and Y position coordinates and speed was calculated by dividing the displacement by time. The two-dimensional displacements between all possible combinations of frames were also calculated and the longest distance was defined as “maximum distance” of the trajectory. The speeds were averaged for 11 consecutive frames and the fastest speed was defined as “maximum speed” of the trajectory.

cytohesin-2 = target: T1, cytohesin-2 (Homo sapiens, UniProt Q99418); test: Radiolabel-based GEF-activity assay ([35S]-GTPγS binding) of full-length cytohesin-2 with myr-Arf1 or myr-Arf6; type: biochemical
T1 construct: steady-state enzymatic GEF-activity analysis of full-length cytohesin-2 or Sec7 domain with Arf1 and Arf6; made in house; host or cells: E. coli BL21DE3
T1 sequence (Q99418 1-400): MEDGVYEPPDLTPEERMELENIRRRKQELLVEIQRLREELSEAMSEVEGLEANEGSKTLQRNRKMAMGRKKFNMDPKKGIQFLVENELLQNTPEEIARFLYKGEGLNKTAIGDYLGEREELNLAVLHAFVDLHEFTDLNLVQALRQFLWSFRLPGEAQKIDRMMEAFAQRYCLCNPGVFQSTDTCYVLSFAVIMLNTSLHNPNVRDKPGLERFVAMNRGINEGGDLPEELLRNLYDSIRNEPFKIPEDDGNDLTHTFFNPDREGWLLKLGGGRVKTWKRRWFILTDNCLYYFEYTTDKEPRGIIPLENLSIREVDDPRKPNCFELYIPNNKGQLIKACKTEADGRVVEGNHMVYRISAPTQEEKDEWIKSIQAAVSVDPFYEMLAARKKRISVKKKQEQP
Procedure: Two assays were used to determine the GDP/GTP-exchange activity of both full-length cytohesin-2 and Sec7 domain.
a) Radiolabel-Based Assay.
The lipids were dissolved in chloroform. […] Proteins were trapped on nitrocellulose filters.
To test the potential signaling between V-ATPase and cytohesin-2/Arf GTP-binding proteins, a GEF-activity assay was established for cytohesin-2 (wt) and myristoylated myr-Arf6 (wt) and myr-Arf1 (wt) GTP-binding proteins (FIG. 2A). Human Arf1 was co-expressed with yeast N-myristoyltransferase in E. coli BL21/DE3 strain. Recombinant myr-Arf1 was purified from the E. coli lysate (A1) using an AKTApurifier equipped with HiTrapQ, Superdex200 columns (A2), and Phenyl Sepharose HP column (A3). Human Arf6 was also co-expressed with yeast N-myristoyltransferase in E. coli BL21/DE3 strain. Recombinant myr-Arf6 was extracted from insoluble fraction using Triton X-100 (B1). The extract was precipitated by 35% ammonium sulfate and myr-Arf6 purified with HiTrapQ column (B2). […] Several soluble, cell permeable and fluorescently labeled a2N1-17 derived peptides were synthesized, which were used in the current GEF-activity and structural studies in vitro.

HeLa cells = test: Cell population endocytic uptake assay (albumin-Alexa555, RITC-dextran) in HeLa cells; type: cell-based; conditions: 5 μM peptide
Procedure: as §1, §2

Human NSCLC A549 cells = test: Cell proliferation assays (MTT, direct cell counting); type: cell-based; conditions: A549, wild-type EGFR, KRas-G12S; three days treatment
Procedure: Cell Proliferation Assays—
First, MTT proliferation assay was carried out using cell growth determination kit according to manufacturer instructions (Sigma). Human NSCLC A549 cells which are expressing wild-type EGFR with KRas-G12S activation mutation were studied in these experiments. […] Medium was changed daily for three days, and cells were stained with MTT and DAPI when indicated.
Second, direct cells counting assays were also performed as follows. Microscopic images of 0.317 mm^2 area each well were acquired for MTT stained cells and cells were counted using ImageJ (NIH). […] Alternatively, the cells were stained with DAPI and microscopic images of whole wells were acquired using DeltaVision system (Applied Precision). Cells were counted using Particle Tracker PlugIn for ImageJ as above (FIG. 13).

[4] = target: T2, Sec7-domain of cytohesin-2 (Homo sapiens, UniProt Q99418); conditions: Biacore; a2N(1-17) peptide and Sec7-domain; read-out: dissociation constant KD; cited from earlier work
T2 sequence (Q99418 72-201 limits assumed): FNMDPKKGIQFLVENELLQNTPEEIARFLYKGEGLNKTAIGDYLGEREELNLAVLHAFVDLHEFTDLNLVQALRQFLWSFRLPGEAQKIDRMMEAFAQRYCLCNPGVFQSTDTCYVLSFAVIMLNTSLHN

[5] = EEA1-EGFP positive early endosomes, peptide in cytosol of MTC cells, 5 μM

Molecule: CN(C)c1nc(N)c(C(=O)N=C(N)N)nc1Cl.Cl [DMA, 5-N,N-dimethylamiloride hydrochloride]
effect on endocytic uptake of fluid phase marker RITC-dextran (MTC cells [1]): not modulated
effect on uptake of albumin-Alexa555 via receptor-mediated (CDE) pathway (MTC cells [1]; hydrochloride): does not affect; also recorded: does not modulate
effect on uptake of albumin-Alexa555 via FITC-a2N1-17-TAT peptide-induced macropinocytosis (CIE) pathway (MTC cells [1]; hydrochloride): could inhibit; also recorded: strongly inhibits
effect on degradation of DQ-Red-BSA in endosomal/lysosomal compartments (MTC cells [2]; hydrochloride): significantly stimulated; also recorded: increased

Molecule: CCN(c1nc(N)c(C(=O)N=C(N)N)nc1Cl)C(C)C [EIPA, 5-(N-ethyl-N-isopropyl)amiloride]
effect on uptake of albumin-Alexa555 via receptor-mediated (CDE) pathway (MTC cells [1]): does not affect
effect on uptake of albumin-Alexa555 via FITC-a2N1-17-TAT peptide-induced macropinocytosis (CIE) pathway (MTC cells [1]): could inhibit

Molecule: Cl.N [NH4Cl]
effect on degradation of DQ-Red-BSA in endosomal/lysosomal compartments (MTC cells [2]): strongly inhibited

Molecule: N=C(N)NC(=O)c1nc(Cl)c(N)nc1N [amiloride]
effect on degradation of DQ-Red-BSA in endosomal/lysosomal compartments (MTC cells [2]): significantly stimulated

Molecule: CO/C1=C\C(C)=C\[C@@H](C)[C@@H](O)[C@@H](C)C/C(C)=C/C=C/[C@H](OC)[C@@H]([C@@H](C)[C@@H](O)[C@H](C)[C@@]2(O)C[C@@H](O)[C@H](C)[C@@H](C(C)C)O2)OC1=O [bafilomycin A1]
effect on endocytic uptake of fluid phase marker RITC-dextran (MTC cells [1]): not modulated
effect on uptake of albumin-Alexa555 via receptor-mediated (CDE) pathway (MTC cells [1]): inhibitory action; also recorded: inhibits
effect on uptake of albumin-Alexa555 via FITC-a2N1-17-TAT peptide-induced macropinocytosis (CIE) pathway (MTC cells [1]): no effect; also recorded: does not modulate
effect on degradation of DQ-Red-BSA in endosomal/lysosomal compartments (MTC cells [2]): strongly inhibited
effect on moving distance of albumin-Alexa594 positive vesicles (MTC cells [3]; MTC cells, 1 μM bafilomycin A1): time-dependent inhibitory effect
inhibitory effect on speed of albumin-Alexa594 positive vesicles (MTC cells [3]; MTC cells, late stages of trafficking, 1 μM bafilomycin A1): 20%

Molecule: CTMR- MGSLFRSESMCLAQLFL - YGRKKRRQRRR [CTMR-a2N1-17-TAT]
moving distance of early endosomes (MTC cells [3]; [5]): significant increase
moving speed of early endosomes (MTC cells [3]; [5]): significant increase

Molecule: FITC-TAT: biologically inactive control peptide, FITC-labelled TAT sequence (YGRKKRRQRRR; SEQ ID NO:33); also purchased from Anaspec
effect on endocytic uptake of albumin-Alexa555 (in words) (MTC cells [1]; 5 μM peptide): no effect and not
effect on uptake of fluid-phase marker RITC-dextran (MTC cells [1]; 5 μM peptide): not
effect on degradation of DQ-Red-BSA in endosomal/lysosomal compartments (MTC cells [2]): did not have any effect; also recorded: do not affect
potently inhibits the enzymatic activity of cytohesin-2 (in words) (cytohesin-2; with both myr-Arf6 and myr-Arf1 as substrate): not
effect on uptake of RITC-dextran (HeLa cells): not
effect on uptake of albumin-Alexa555 (HeLa cells): not

Molecule: MASVFRSEEMCLSQVFL [a4N1-17]
inhibition of proliferation of human lung cancer A549 cells (Human NSCLC A549 cells): very potent inhibitors

Molecule: MGELFRSEEMTLAQLFL [a1N1-17]
inhibition of proliferation of human lung cancer A549 cells (Human NSCLC A549 cells): very potent inhibitors

more potent inhibitor of cytohesin-2 than SecinH3 (cytohesin-2; relative to SecinH3): up to 150 times
Molecule: MGSLFRSESMCLAQLFL [a2N1-17]
inhibition of proliferation of human lung cancer A549 cells (Human NSCLC A549 cells): very potent inhibitors

Molecule: MGSLFRSETMCLAQLFL [a2N(1-17)]
Kd [4]: 344 nM

Molecule: MGSMFRSEEVALVQLLL [a3N1-17]
inhibition of proliferation of human lung cancer A549 cells (Human NSCLC A549 cells): very potent inhibitors
